Measured values taken from ChEMBL document CHEMBL1201862, “PubChem BioAssay data set” (2004).
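How tested: cells in 96-well plates exposed to compound for 48 hours at five concentrations. The concentration for 50% growth inhibition is given as GI50.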 Calls of active or inactive are those of the source. Cut-off read from the data, not from the text of the source: active = GI50 up to about 1.1 µM and inactive = higher.

Columns and labels:
Assay in all cases: growth of human tumour cells (NCI), 48 h
[1] = tested on: 786-0
[2] = tested on: ACHN
[3] = tested on: CCRF-CEM
[4] = tested on: IGROV-1
[5] = tested on: LOX IMVI
[6] = tested on: MOLT-4
[7] = tested on: NCI-H226
[8] = tested on: NCI-H23
[9] = tested on: NCI-H460
[10] = tested on: NCI-H522
[11] = tested on: OVCAR-5
[12] = tested on: OVCAR-8
[13] = tested on: SF-539
[14] = tested on: SK-MEL-28
[15] = tested on: UACC-257
[16] = tested on: EKVX
[17] = tested on: OVCAR-3

Measured: GI50

O=c1cc(-c2ccccc2)[nH]c2c(F)ccc(F)c12
inactive: [1] 79.6 µM | [2] > 100 µM | [3] > 100 µM | [4] > 100 µM | [5] 49.3 µM | [6] 46.2 µM | [7] 37.6 µM | [8] > 100 µM | [9] 32.5 µM | [10] 27.7 µM | [11] 43.9 µM | [12] 82 µM | [13] 52.8 µM | [14] 59.8 µM | [15] > 100 µM

COc1ccc(NC(=O)CC(=O)N2N=C(N(CCC#N)c3cccc(C)c3)CC2c2ccccc2)cc1 (configuration not stated)
inactive: [1] > 100 µM | [2] > 100 µM | [3] > 100 µM | [16] > 100 µM | [4] > 100 µM | [6] > 100 µM | [7] > 100 µM | [8] > 100 µM | [9] > 100 µM | [10] > 100 µM | [17] > 100 µM | [11] > 100 µM | [12] > 100 µM | [13] > 100 µM | [14] > 100 µM | [15] > 100 µM

COc1ccc(C(=O)C(c2ccc(OC)cc2)C2(O)C(=O)Nc3ccc([N+](=O)[O-])cc32)cc1 (configuration not stated)
inactive: [1] > 100 µM | [2] > 100 µM | [3] > 100 µM | [16] > 100 µM | [4] > 100 µM | [6] > 100 µM | [7] > 100 µM | [8] > 100 µM | [9] > 100 µM | [10] > 100 µM | [17] > 100 µM | [11] > 100 µM | [12] > 100 µM | [13] 11.3 µM | [14] > 100 µM | [15] > 100 µM

Clc1ccc(C2=NOC(C3CCCCC3)C2)cc1 (configuration not stated)
inactive: [1] > 100 µM | [2] > 100 µM | [3] > 100 µM | [4] > 100 µM | [6] > 100 µM | [7] > 100 µM | [8] > 100 µM | [9] > 100 µM | [10] > 100 µM | [17] > 100 µM | [11] > 100 µM | [12] > 100 µM | [13] > 100 µM | [14] > 100 µM | [15] > 100 µM

O=C(CP(=O)(O)O)c1cccs1
inactive: [1] > 100 µM | [2] > 100 µM | [3] > 100 µM | [16] > 100 µM | [4] > 100 µM | [5] > 100 µM | [8] > 100 µM | [9] > 100 µM | [10] > 100 µM | [17] > 100 µM | [11] > 100 µM | [12] > 100 µM | [13] > 100 µM | [14] > 100 µM | [15] > 100 µM

NC(=S)N/N=C1/C(=O)N(c2ccccc2)C(=O)C1C(=O)Nc1ccccc1 (configuration not stated)
inactive: [1] > 100 µM | [2] > 100 µM | [16] > 100 µM | [4] > 100 µM | [6] > 100 µM | [7] > 100 µM | [8] > 100 µM | [9] > 100 µM | [10] > 100 µM | [17] > 100 µM | [11] > 100 µM | [12] > 100 µM | [13] > 100 µM | [14] > 100 µM | [15] > 100 µM

CCCC(=O)CC(C)C(=O)C(=O)NC12CC3CC(CC(C3)C1)C2 (configuration not stated)
inactive: [1] > 100 µM | [2] > 100 µM | [3] > 100 µM | [16] > 100 µM | [5] > 100 µM | [6] > 100 µM | [7] > 100 µM | [8] > 100 µM | [9] > 100 µM | [10] > 100 µM | [17] > 100 µM | [11] > 100 µM | [12] > 100 µM | [14] > 100 µM | [15] > 100 µM
